Test results from patent US20220411362A1, “DITERPENOID COMPOUNDS THAT ACT ON PROTEIN KINASE C (PKC)” (K-Gen, Inc., priority 2019, published 2022).
pIC50, pKi: −log10 of the molar value. Read-outs that look alike come from different tables or passages of the source.

Assays:
[1] = test system: phosphorylation of CaMKii at T286 in Panc1 cells; assay: CaMKii phosphorylation in Panc1 cell line (Western blot); format: cell-based; conditions: 0.2 μM and 1 μM, 48 hours (FIG. 5)
Protocol: Panc1 (a pancreatic cancer cell line) cells (˜5-8 millions) were seeded in 10 cm dishes (or ˜2 millions in 6 cm dishes) and treated next day with prostratin (K-101, 0.2 μM and 1 μM) or 0.02 μM and […] of K101-C1347, -C134801, and -C134802 for 48 hours. Cells were then collected/lysed for Western blot analysis. Protein quantification, SDS-PAGE, and Western blot procedures were performed as described in Example 65, except that a different lysis buffer (1 ml of 10×TNE [20 mL 1M Tris pH7.5; 30 mL 5M NaCl; 2 mL 0.5M EDTA; 48 mL d2H2O], 1 ml of 10% NP40, 7.7 mL of dH2O, 100 μL of 10× Protease inhibitors, 100 μL of 10× Phosphatase inhibitors, and 10 μl DTT) was used. To assess the effect of diterpenoid compounds on CaMKii phosphorylation, a phospho-specific antibody P-CaMKii (T286) (Abcam, cat #32678) was used for detection. Phosphorylation of CaMKii at T286 is a marker for activation of CaMKii kinase in the Wnt/Ca^2+ signaling pathway when […] and thus a downstream marker for inhibition of K-Ras stemness (Wang et al., Cell. 2015, 163(5):1237-51).

[2] = test system: A549 non-small cell lung cancer cell line; assay: Proliferation of A549 (CellTiter Glo); format: cell-based; conditions: Homo sapiens, read-out: IC50 μM (A549 Cell Line)
Procedure, shortened: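 Luminescent CellTiter Glo read-out after 96 h compound exposure of A549 cells plated at 1,000/well and rested 24 h at 37° C; DMSO kept ≤0.25%, dilutions 3-fold. Inhibition taken relative to DMSO-treated wells; IC50, relative IC50 and top inhibition derived by curve fitting.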

[3] = test system: Panc2.13 (Pancreatic) cell line; assay: Proliferation of Panc2.13; format: cell-based; conditions: for IC50: read-out: IC50 in μM Panc2.13 (Pancreatic); for ratio of (IC50 of K01)/(IC50 of compound), Panc2.13: value in parenthesis
Protocol: (§1) The diterpenoid compounds were tested in A549, a non-small cell lung cancer cell line harboring a K-Ras activating mutation. Briefly, A549 cells at a density of 1,000 cells/well were seeded in 96-well plates and incubated at 37° C. for 24 hours. A series of different concentrations of compound stocks (500×) were prepared by 3-fold serial dilution in DMSO. These compounds were further diluted in culture media and then added to cells so that the final DMSO concentration was not exceeding 0.25%. After 96 hours of incubation, 50 μL of CellTiter Glo reagent (Promega) was added to each well and luminescence was measured after 10 minutes using EnVision (PerkinElmer). Luminescence from cells treated with DMSO alone was set as Max and % of inhibition was calculated as follows: Inhibition %=(Max−Sample value)/Max×100. Data was analyzed using XL-fit software (ID Business Solutions Ltd.) and IC50, relative IC50, and % of top inhibition was calculated. Some of the compounds in this disclosure were very potent in blocking proliferation of A549 lung cancer cells at low nM range. In addition, potency of inhibiting A549 proliferation correlated well with its binding affinity to PKCs for this series of compounds. In other words, higher affinity binders had stronger inhibitory effects on A549 proliferation. This further support the notion that activation, rather than inhibition, of certain PKC isoforms is required to block proliferation of cancer cells, some of which may harbor K-Ras mutations. This is in sharp contrast to previous literature and common belief that inhibition of PKC is necessary to block cancer cell growth (Kang, 2014, New Journal of Science, 2014:1-36). Data presented here is in agreement with recent findings that many loss-of-function but not gain-of-function mutations of PKC isoforms have been identified in many human cancers (Antal et al., 2015, Cell, 160:489-502).
(§2) The compounds in this disclosure were tested for their potency in blocking proliferation of a few other cancer cells lines, including K-Ras mutant pancreatic cell lines Panc2.13 and KP-4, leukemia cell line HL-60, and lymphoma cell lines Namalwa and Mino. Similar procedures as in Example 67 were followed. Initial cell numbers seeded in 96-well plates were different for different cell lines: 3000 cells/well for Panc2.13; 800-1000 cells/well for KP-4; 5000 cells/well for HL-60; 5000-10000 cells/well for Namalwa and Mino. A ratio ratio of (IC50 of K01)/(IC50 of compound) (data in parenthesis in Table 5) was used to normalize the compound potency from different assay batches to a common comparator […].

[4] = test system: KP-4 (Pancreatic) cell line; assay: Proliferation of KP-4; format: cell-based
Protocol: as §1, §2

[5] = test system: HL-60 (Leukemia) cell line; assay: Proliferation of HL-60; format: cell-based
Procedure, shortened: (§3)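 Luminescent ATP readout (CellTiter Glo) after 96 h compound exposure measured growth inhibition relative to DMSO-only wells, from which IC50 was fitted. Seeding densities were 800-1000 cells/well for KP-4, 5000 for HL-60 and 5000-10000 for Namalwa and Mino.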

[6] = test system: Namalwa (Lymphoma) cell line; assay: Proliferation of Namalwa; format: cell-based; conditions: for IC50: read-out: IC50 in μM Namalwa (Lymphoma); for ratio of (IC50 of K01)/(IC50 of compound), Namalwa: value in parenthesis
Procedure, shortened: as §3

[7] = test system: Mino (Lymphoma) cell line; assay: Proliferation of Mino; format: cell-based
Procedure, shortened: as §3

[8] = test system: PANC1 cells; assay: Sphere formation assay (cancer stemness); format: cell-based; conditions: Homo sapiens, PANC-1, read-out: concentration exhibiting at least 50% inhibition on the sphere forming efficiency
Protocol: A group of diterpenoid compounds of the present disclosure were tested to assess their effects on blocking formation of spheres from cancer cell lines such as PANC1, a K-Ras mutant pancreatic cell line. Briefly, PANC1 cells were harvested, re-suspended as single cell suspensions, counted and seeded into Ultra Low Attachment Culture 96-well plate (Corning, Cat #3474) at 100 cells/well in 100 μl of complete media (with 10% FBS) containing 2% Matrigel (Corning, Cat #354234) and DMSO or compounds. Six replicates per condition were seeded. The seeded cells were placed in the 37° C. tissue culture incubator. 10 μl of low serum containing media (with 0.1% FBS) was added to each well every week. Spheres formed after 3-4 weeks were counted. Sphere forming efficiency was expressed as percentage of # of spheres/# of cells seeded.

[9] = target: T1, C1b domain of human PKCδ (Homo sapiens, UniProt Q05655); assay: Competitive 3H-PDBu binding to C1b domain of PKCδ; conditions: Ki PKCδ, 3H-PDBu competition
T1 construct: Genes encoding C1b domains of human PKCα, δ, ε, θ, and PKD1 (PKCμ) were synthesized; made in house; host or cells: E. coli BL21(DE3)
Procedure, shortened: (§4)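 Ki derived by Cheng-Prusoff from IC50, with each protein batch's measured ^3H-PDBu Kd. Displacement of ^3H-PDBu from E. coli-produced GST-fused C1b domains or full-length human PKC was run 10 min at 37°C plus 20 min on ice, with filter capture and scintillation counting.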

[10] = target: T2, C1b domain of human PKCα (Homo sapiens, UniProt P17252); assay: biochemical; format: binding; conditions: 3H-PDBu competition; for pKi: Ki PKCα
T2 construct: Genes encoding C1b domains of human PKCα, δ, ε, θ, and PKD1 (PKCμ) were synthesized; made in house; host or cells: E. coli BL21(DE3)
Procedure, shortened: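 Competitive binding against 3H-PDBu tracer used recombinant GST-C1b fusion protein expressed in E. coli. Incubation ran 10 min at 37°C with shaking, then 20 min on ice, followed by filtration and scintillation counting of trapped 3H-PDBu. Affinity was derived using each protein preparation's experimentally determined Kd for 3H-PDBu.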

[11] = target: T3, C1b domain of human PKCθ (Homo sapiens, UniProt Q04759); assay: Competitive 3H-PDBu binding to C1b domain of PKCθ
T3 construct: Genes encoding C1b domains of human PKCα, δ, ε, θ, and PKD1 (PKCμ) were synthesized; made in house; host or cells: E. coli BL21(DE3)
T3 sequence (Q04759 231-281 limits assumed): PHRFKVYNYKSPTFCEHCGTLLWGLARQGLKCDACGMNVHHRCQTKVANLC
Procedure, shortened: as §4

[12] = target: T4, C1b domain of human PKCε (Homo sapiens, UniProt Q02156); assay: Competitive 3H-PDBu binding to C1b domain of PKCε
T4 construct: Genes encoding C1b domains of human PKCα, δ, ε, θ, and PKD1 (PKCμ) were synthesized; made in house; host or cells: E. coli BL21(DE3)
Procedure, shortened: as §4

[13] = target: T5, C1b domain of human PKD1 (PKCμ) (Homo sapiens, UniProt Q15139); assay: biochemical; format: binding
T5 construct: Genes encoding C1b domains of human PKCα, δ, ε, θ, and PKD1 (PKCμ) were synthesized; made in house; host or cells: E. coli BL21(DE3)
T5 sequence (Q15139 270-320 limits assumed): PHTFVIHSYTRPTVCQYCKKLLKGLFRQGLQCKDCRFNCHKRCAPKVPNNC
Procedure, shortened: as §4

[14] = test system: phosphorylation of PKCμ, PKCδ and Erk1/2 in A549 lung cancer cells; format: cell-based; conditions: 0.3 μM, 30 minutes, Western blot (FIG. 1)
Protocol: Cells were then treated with different drugs at indicated concentrations for 30 minutes. […] Imagequant LAS4000 (GE) was used to scan membranes if secondary antibodies anti-mouse IgG HRP conjugate or anti-rabbit IgG HRP conjugate (dilutions from 1:2000-1:10000) were used. For ProteinSimple Wes system, manufacture's procedure was followed (ProteinSimple 12-230 kDa Wes Separation Module) for sample preparation, loading, running, and data analysis.
Phosphorylation of these sites has been linked to acute activation or catalytic activity of the PKC isoforms and Erk1/2. High level of phosphorylation indicates strong activation.

[15] = Homo sapiens, KP-4, read-out: IC50 in μM KP-4 (Pancreatic)
[16] = Homo sapiens, HL-60, read-out: IC50 in μM HL-60 (Leukemia)
[17] = Homo sapiens, MINO, read-out: IC50 in μM Mino (Lymphoma)

T4 sequence (Q02156 242-292 limits assumed): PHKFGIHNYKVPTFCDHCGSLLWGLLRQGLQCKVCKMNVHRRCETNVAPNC
T1 sequence (Q05655 230-280 limits assumed): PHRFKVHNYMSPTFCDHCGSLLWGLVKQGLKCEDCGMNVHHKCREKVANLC

SMILES | IC50 [3] [µM] | IC50 [6] [µM] | pKi [9] | pKi [11] | pKi [12] | pKi [13] | phosphorylation of PKC (PKD/PKCμ), PKCδ and Erk1/2 [14] | IC50 ([2]; A549, 96 h) [µM] | ratio of (IC50 of K01)/(IC50 of compound), Panc2.13 [3] | IC50 [4, 15] [µM] | ratio of (IC50 of K01)/(IC50 of compound), HL-60 ([5]; HL-60; value in parenthesis) | IC50 [5, 16] [µM] | ratio of (IC50 of K01)/(IC50 of compound), Namalwa [6] | IC50 [7, 17] [µM] | ratio of (IC50 of K01)/(IC50 of compound), Mino ([7]; Mino; value in parenthesis) | pIC50 [8] | pKi [10] | also measured
CC(=O)O[C@@]12C[C@@H](C)[C@@]3(O)[C@@H](C=C(CO)C[C@]4(O)C(=O)C(C)=C[C@@H]34)[C@@H]1C2(C)C [Compound K101, prostratin, reference compound] | 0.6 to 1 | 0.06 to 0.1 |  |  |  |  |  |  |  |  |  |  |  |  |  |  |  | phosphorylation of CaMKii at T286 [1]: induced phosphorylation of CaMKii at T286; IC50 ([2]; A549, 96 hours incubation, CellTiter Glo): 0.03 to 0.06 µM; IC50 ([4]; Homo sapiens, KP-4; read-out: IC50 in μM KP-4 (Pancreatic)): 0.2 to 0.6 µM; IC50 ([5]; Homo sapiens, HL-60; read-out: IC50 in μM HL-60 (Leukemia)): 0.2 to 0.6 µM; IC50 ([7]; Homo sapiens, MINO; read-out: IC50 in μM Mino (Lymphoma)): 0.06 to 0.1 µM; pIC50 ([8]; PANC1 single cell suspension, spheres counted after 3-4 weeks): ≥ 6.30
CC1=C[C@H]2[C@@]3(O)[C@H](C)C[C@]4(OC(=O)[C@@H](N)CCCc5ccccc5)[C@H]([C@@H]3C=C(CO)C[C@]2(O)C1=O)C4(C)C [Compound K101-C1319] | 0.2 to 0.6 | 0.03 to 0.06 | > 8.30 | 8.00 to 8.30 | 7.22 to 7.52 | > 8.30 | induced high levels of phosphorylation | 0.06 to 0.1 | 3.65 | 0.1 to 0.2 | 1.79 | 0.03 to 0.06 | 1.53 | 0.01 to 0.03 | 6 | ≥ 5.82 |  | Ki PKCα [10]: E (E=>60 nM and ≤10 nM)
CC1=C[C@H]2[C@@]3(O)[C@H](C)C[C@]4(OC(=O)[C@@H](N)C5Cc6ccccc6C5)[C@H]([C@@H]3C=C(CO)C[C@]2(O)C1=O)C4(C)C [Compound K101-C1329] | 0.1 to 0.2 | 0.03 to 0.06 | > 8.30 | 8.00 to 8.30 | 7.52 to 9.00 | > 8.30 | induced high levels of phosphorylation | 0.06 to 0.1 | 5.82 | 0.06 to 0.1 | 1.79 | 0.03 to 0.06 | 1.6 | 0.01 to 0.03 | 5.5 | ≥ 6.82 | 7.22 to 7.52 | 
CC1=C[C@H]2[C@@]3(O)[C@H](C)C[C@]4(OC(=O)[C@@H](N)CCC5CCCCC5)[C@H]([C@@H]3C=C(CO)C[C@]2(O)C1=O)C4(C)C [Compound K101-C1345] | 0.03 to 0.06 | 0.001 to 0.01 | > 8.30 | 7.52 to 9.00 | 7.52 to 9.00 | > 8.30 |  | 0.01 to 0.03 | 20.5 | 0.01 to 0.03 | 27.7 | 0.01 to 0.03 | 7.42 | 0.001 to 0.01 | 33 | ≥ 6.82 | 7.22 to 7.52 | 
